Data from US8039500B2, “Fused heterocyclic compounds” (Takeda Pharmaceutical Company Limited, priority 2006, dated 2011).

Molecular target: T1, human CRF receptor (Homo sapiens, UniProt P34998)
T1 construct: expressed in transfected cells; host or cells: CHO cells (membrane fraction)
T1 sequence (P34998 24-415): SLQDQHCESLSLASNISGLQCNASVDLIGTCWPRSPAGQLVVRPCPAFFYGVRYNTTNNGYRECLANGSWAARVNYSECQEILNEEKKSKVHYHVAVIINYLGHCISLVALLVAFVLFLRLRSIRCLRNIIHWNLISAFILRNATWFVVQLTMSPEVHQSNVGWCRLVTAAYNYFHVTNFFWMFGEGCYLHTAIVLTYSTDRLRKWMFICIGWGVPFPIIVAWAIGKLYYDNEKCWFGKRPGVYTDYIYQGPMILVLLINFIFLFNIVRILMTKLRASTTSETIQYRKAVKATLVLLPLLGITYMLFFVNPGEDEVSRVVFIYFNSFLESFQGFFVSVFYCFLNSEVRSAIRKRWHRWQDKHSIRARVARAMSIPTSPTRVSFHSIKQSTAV
Experiment: CRF binding inhibitory rate / receptor binding experiment with 125I-CRF
Details: human CRF receptor expressing CHO cellular membrane fraction, 50 pM 125I-CRF (ovine CRF), room temperature 1.5 hr, 0.05 nM to 10 μM of compound; read-out: IC50 values (CRF binding inhibition)
Protocol: Measurement of CRF Binding Inhibitory Rate
A receptor binding experiment was carried out using a human CRF receptor expressing CHO cellular membrane fraction and ovine CRF, [^125I]-tyr^0(^125I-CRF). 1000 nM of a test compound was incubated with 1 μg of human CRF receptor expressing CHO cellular membrane fraction and 50 pM of ^125I-CRF in a binding assay buffer (50 mM Tris-HCl, 5 mM EDTA, 10 mM MgCl2, 0.05% CHAPS, 0.1% BSA, 0.5 mM PMSF, 0.1 μg/mL pepstatin, 20 μg/mL leupeptin, pH 7.5). In addition, for measuring nonspecific binding (NSB), 0.1 μM unlabelled human Urocortin was incubated with 5 μg of human CRF receptor expressing CHO cellular membrane fraction and 50 pM of ^125I-CRF in a binding assay buffer. After a binding reaction was carried out at room temperature for 1.5 hr, the membrane was entrapped on a glass filter (UniFilter plate GF-C/Perkin Elmer) by suction filtration using a cell harvester (Perkin Elmer), and washed with ice-cooled 50 mM Tris-HCl (pH 7.5). After drying the glass filter, a liquid scintillation cocktail (Microscinti 0, Perkin Elmer) was added, and the radioactivity of ^125I-CRF remaining on a glass filter was measured using Topcount (Perkin Elmer).
(TB-SB)/(TB-NSB)×100 (SB: radioactivity when a compound is added, TB: maximum binding radioactivity, NSB: nonspecific binding radioactivity) were calculated to obtain binding inhibitory rates under the range of the presence from 0.05 nM to 10 μM of each compound. The IC50 values were calculated by using GraphPad Prism software.

Compound | IC50
CC=C(CC)c1cccc2nc(Cc3c(C)cc(C)cc3C)n(C)c12 (mixture of isomers) [Example 4, 7-[1-Ethylprop-1-en-1-yl]-2-(mesitylmethyl)-1-methyl-1H-benzimidazole] | < 1000 nM
CCC(c1cccc2nc(Cc3c(Cl)cc(C(F)(F)F)cc3Cl)n(C)c12)C(C)OC(C)=O (mixture of isomers) [Example 8, 2-{2-[2,6-Dichloro-4-(trifluoromethyl)benzyl]-1-methyl-1H-benzimidazol-7-yl}-1-methylbutyl acetate] | < 1000 nM
CCN(CC)c1cccc2nc(Cc3c(C)cc(C)cc3C)n(C)c12 [Example 1, N,N-Diethyl-2-(mesitylmethyl)-1-methyl-1H-benzimidazol-7-amine] | < 1000 nM
CCN(CC)c1cccc2nc(Cc3c(Cl)cc(C(F)(F)F)cc3Cl)n(C)c12 [Example 2, 2-[2,6-Dichloro-4-(trifluoromethyl)benzyl]-N,N-diethyl-1-methyl-1H-benzimidazol-7-amine] | < 1000 nM
CCC(O)(CC)c1cccc2nc(Cc3c(C)cc(C)cc3C)n(C)c12 [Example 3, 3-[2-(Mesitylmethyl)-1-methyl-1H-benzimidazol-7-yl]pentan-3-ol] | < 1000 nM
CCC(CC)c1cccc2nc(Cc3c(C)cc(C)cc3C)n(C)c12 [Example 5, 7-(1-Ethylpropyl)-2-(mesitylmethyl)-1-methyl-1H-benzimidazole] | < 1000 nM
CCC(O)(CC)c1cccc2nc(Cc3c(Cl)cc(C(F)(F)F)cc3Cl)n(C)c12 [Example 6, 3-{2-[2,6-Dichloro-4-(trifluoromethyl)benzyl]-1-methyl-1H-benzimidazol-7-yl}pentan-3-ol] | < 1000 nM
CC=C(CC)c1cccc2nc(Cc3c(Cl)cc(C(F)(F)F)cc3Cl)n(C)c12 [Example 7, 2-[2,6-Dichloro-4-(trifluoromethyl)benzyl]-7-[1-ethylprop-1-en-1-yl]-1-methyl-1H-benzimidazole] | < 1000 nM
CCC(c1cccc2nc(Cc3c(Cl)cc(C(F)(F)F)cc3Cl)n(C)c12)C(C)O (stereo not drawn) [Example 9, 3-{2-[2,6-Dichloro-4-(trifluoromethyl)benzyl]-1-methyl-1H-benzimidazol-7-yl}pentan-2-ol] | < 1000 nM
CCC(CC)c1cccc2nc(C(O)c3c(C)cc(C)cc3C)n(C)c12 (stereo not drawn) [Example 10, [7-(1-Ethylpropyl)-1-methyl-1H-benzimidazol-2-yl](mesityl)methanol] | < 1000 nM

Test system: not given
Experiment: not given
Details: not given

Compound | melting point
CCN(CC)c1cccc2nc(Cc3c(Cl)cc(C(F)(F)F)cc3Cl)n(C)c12 [Example 2, 2-[2,6-Dichloro-4-(trifluoromethyl)benzyl]-N,N-diethyl-1-methyl-1H-benzimidazol-7-amine] | 150 to 151 °C
CCC(CC)c1cccc2nc(C(O)c3c(C)cc(C)cc3C)n(C)c12 (stereo not drawn) [Example 10, [7-(1-Ethylpropyl)-1-methyl-1H-benzimidazol-2-yl](mesityl)methanol] | 132 to 134 °C
